These results are taken from patent publication US20040241088A1, “Method for evaluating the efficacy of certain cancer treatments” (Georgetown University, priority 2003, published 2004).

The test system of experiment [1] is 17 kDa fragment of caspase 3. Kind of experiment: 17 kDa fragment of caspase 3 in PANC-1 cells in vitro (Western). The class given is cell-based, human. As to conditions: 9 hours, Gemzar 0.8 μM, ODN 1 μM. Here is the method: A. To detect the presence of the 17 kDa active caspase 3 fragment in cell cultures the following procedure was used in subsequent Examples to isolate total protein from both living and dead floating cells. The medium from the cell culture vessel was removed and reserved.
To lyse the cells, resuspend the cell pellet in 150 μl-200 μl RIPA buffer (with freshly prepared inhibitors) per 3×10^6 cells. RIPA buffer is 1×PBS, 1% NP40, 0.5% sodium deoxycholate, 0.1% SDS (this may be made in large volumes). Add inhibitors at time of use from the following stock solutions:
In a further specific embodiment of this invention, it was determined that the cleaved 17 kDa subunit can be detected in tumor and/or blood as a means of verifying the efficacy of therapy with antisense (AS) HER-2, i.e. that the apoptotic pathway is induced by AS HER-2 treatment. […]
Also evaluated in vitro was the induction of the 17 kDa fragment by the combination of the TfRscFv-LipA-AS HER-2 plus the chemotherapeutic agent Gemzar® (gemcitabine).

For experiment [2], the system named is components of the PI3K/AKT pathway and apoptosis. Kind of experiment: Western analysis of signal transduction and apoptosis proteins in PANC-1 cells. Type of experiment: cell-based, human. The text has this: (§1) Treatment of Pancreatic Cancer (PanCa) with the tumor targeting TfRscFv-LipA-AS HER-2 complex can down-regulate HER-2 expression (even when not overexpressed), thus negatively affecting cell growth/survival and positively enhancing apoptotic pathways leading to increased tumor cell killing.
The phosphorothioate sequence specific AS HER-2, complementary to the initiation codon region (5′-TCC ATG GTG CTC ACT-3′), and the control, non-sequence specific SC (5′-CTA GCC ATG CTT GTC-3′) ODNs were synthesized and purified by reverse phase HPLC by Ransom Hill Biosciences (Ramona, Calif.). […] PANC-1 or COLO 357 cells were seeded/in a six well plate and transfected 24 hours later with the TfRscFv-LipA complex carrying 1 μM (for PANC-1) or 0.5 μM (for COLO 357) AS HER-2 or SC HER-2 ODN (negative control). The cells were transfected with either oligo alone or, to look for a synergistic effect, in combination with gemcitabine (Gemzar®). At the indicated times, the cells were harvested, lysed in RIPA buffer, protein determined, run (60 ug total protein/lane) on a 4-20% gradient polyacrylamide/SDS gel and transferred to nitrocellulose for Western analysis as described in Examples 1, 3 and 4. To detect HER-protein expression the membranes were probed with the anti-human HER-2/Neu (C-18) rabbit polyclonal Ab (Santa Cruz Biotechnology) and the signal detected by ECL (Amersham). Change in protein expression as compared to untreated cells was also ascertained for total and/or phosphorylated Akt (Ser 473), a central component in the PI3K pathway (using an anti-Human polyclonal Ab, Cell Signaling Technology),phosphorylated BAD (Ser 136), an important factor in regulation of apoptosis (using an anti-human rabbit polyclonal antibody, Cell Signaling Technology), as well as cleaved caspase 3 (Asp 175) (using the rabbit polyclonal antibody, specific for the 17 kDa subunit, Cell Signaling Technology) and PARP/cleaved PARP (poly ADP ribopolymerase, another marker of apoptosis) using an anti-human rabbit polyclonal antibody, (Cell Signaling Technology) both downstream indicators of apoptosis.

For experiment [3] the test system is unchanged. Kind of experiment: Western analysis of signal transduction and apoptosis proteins in COLO357 cells. Type of experiment: cell-based. As to conditions: 8 hrs post-transfection.
Text: as §1
The phosphorothioate sequence specific AS HER-2, complementary to the initiation codon region (5′-TCC ATG GTG CTC ACT-3′), and the control, non-sequence specific SC (5′-CTA GCC ATG CTT GTC-3′) ODNs were synthesized and purified by reverse phase HPLC by Ransom Hill Biosciences (Ramona, Calif.). […] PANC-1 or COLO 357 cells were seeded/in a six well plate and transfected 24 hours later with the TfRscFv-LipA complex carrying 1 μM (for PANC-1) or 0.5 μM (for COLO 357) AS HER-2 or SC HER-2 ODN (negative control). The cells were transfected with either oligo alone or, to look for a synergistic effect, in combination with gemcitabine (Gemzar®). At the indicated times, the cells were harvested, lysed in RIPA buffer, protein determined, run (60 ug total protein/lane) on a 4-20% gradient polyacrylamide/SDS gel and transferred to nitrocellulose for Western analysis as described in Examples 1, 3 and 4. To detect HER-protein expression the membranes were probed with the anti-human HER-2/Neu (C-18) rabbit polyclonal Ab (Santa Cruz Biotechnology) and the signal detected by ECL (Amersham). […]

Experiment [4] has as its system 17 kDa cleaved caspase 3 fragment. Kind of experiment: Tumor-specific localization of the 17 kDa fragment in tumor, liver and lung of PANC-1 xenograft mice. Type of experiment: in vivo. As to conditions: PANC-1 tumor; ODN 10 mg/kg i.v. daily for six days; Gemzar 60 mg/kg i.p. x3; 24 hours after last injection.
Method: PANC-1 tumors were induced by implantation of <1 mm^3 tumor sections from serially passaged PANC-1 xenograft tumors into 4-6 week old female nude mice. When the tumors reached approximately 100-200 mm^3 the TfRscFv-LipA-AS HER-2 complex was i.v. injected into the tail vein daily for six days. The dose of ODN (AS or SC) administered per mouse was 10 mg/kg/injection. For comparison to standard therapy, a separate animal received chemotherapeutic agent Gemzar® (i.p.) only (60 mg/kg/injection) every other day to a total of three injections. In addition, one mouse received the combination of TfRscFv-LipA-AS HER-2 and Gemzar® at the above dose and schedule, and, as a control, one received the combination of complex carrying SC ODN and Gemzar® at the above dose and schedule. All mice were sacrificed 24 hours after the last injection and tumor, liver and lung were harvested as in Example 1. To assess tumor specific targeting in this model HER-2 and the 17 kDa cleaved caspase 3 fragment expression in the tissues was examined by Western Blot analysis Examples 3 and 4. The effect of TfRscFv-LipA-AS HER-2 on induction of the 17 kDa fragment in tumor and tissue samples also screened for HER-2 levels was examined.
The next experiment has as its system PANC-1 xenograft tumors. In words: In vivo chemosensitization: growth of subcutaneous PANC-1 xenograft tumors. More on the design: species or system mice. Conditions: complex i.v. three times per week, ODN 9 mg/kg (18 injections); Gemzar i.p. twice weekly 60 mg/kg (12 injections).

Method for PANC-1 xenograft tumors: The efficacy of the TfRscFv-LipA-AS HER-2 in treating PanCa in vivo was assessed using the subcutaneous PANC-1 xenograft mouse model. Athymic nude mice (5-9 mice/group with two tumors/mouse) bearing subcutaneous xenograft tumors of ˜50 mm^3 were treated three times per week with the TfRscFv-LipA-AS HER-2 complex containing ODN at 9 mg/kg/injection. As controls one group of animals received Gemzar® alone, the TfRscFv-LipA-AS HER-2 alone, or the combination of Gemzar® and the complex carrying the SC ODN. Gemzar® was given I.P. twice weekly at 60 mg/kg. The animals received a total of 18 i.v. injections of complex and 12 of Gemzar®.

On to `Nc1ccn([C@@H]2O[C@H](CO)[C@@H](O)C2(F)F)c(=O)n1` [Gemzar®, gemcitabine], for which, in experiment [1], the “expression of 17 kDa fragment” value was “did not result in the expression of this fragment above background levels”. Also, the “cleaved caspase 3 (appearance of the 17 kDa protein)” value in experiment [2] (8 hours post-transfection) was “not in those cells”. Besides, in experiment [2] (16 hours post-transfection), the “cleaved PARP” value is listed as “evident” and the “cleaved caspase 3 (17 kDa fragment)” value is listed as “evident”. Besides, in experiment [3], the “cleaved PARP” value was “little or no evidence” and the “cleaved caspase 3 (17 kDa subunit)” value is “little or no evidence”. For the same compound, in experiment [4], the “induction of the 17 kDa fragment in the tumor” value is “not evident”. For the same compound, in the experiment on PANC-1 xenograft tumors, the tumor growth result is given as “only minimal effect”.
